This assay concerns HCV 1b genotype. The assay can be described thus: HCV Replicon assay. The class given is cell-based. The note with it: Hepatitis C virus, HCV 1b genotype replicon. The method, then:
An HCV Replicon assay was utilized in the present disclosure, and was prepared, conducted and validated as described in commonly owned PCT/US2006/022197 and in O'Boyle et. al. Antimicrob Agents Chemother. 2005 April; 49(4):1346-53. Assay methods incorporating luciferase reporters have also been used as described (Apath.com).
HCV-neo replicon cells and replicon cells containing mutations in the NS5A region were used to test the currently described family of compounds. The compounds were determined to have more than 10-fold less inhibitory activity on cells containing mutations than wild-type cells. Thus, the compounds of the present disclosure can be effective in inhibiting the function of the HCV NS5A protein and are understood to be as effective in combinations as previously described in application PCT/US2006/022197 and commonly owned WO/04014852. Further, the compounds of the present disclosure can be effective against the HCV 1b genotype. It should also be understood that the compounds of the present disclosure can inhibit multiple genotypes of HCV. […] In one embodiment, compounds of the present disclosure are inhibitory versus 1a, 1b, 2a, 2b, 3a, 4a, and 5a genotypes.
(In antiviral work, replicon cells carry a viral genome segment that copies itself.)

Where [1] appears, read: read-out: 1b EC50 (in nM or range).

The values below come from patent US8822444B2, “Hepatitis C virus inhibitors” (Bristol-Myers Squibb Company, priority 2009, dated 2014).

Broadly, the EC50 is the concentration giving half of the maximal effect.

Like-named read-outs stand apart in the source and are kept apart here.

As to `COC(=O)N[C@H](C(=O)N1CCC[C@H]1c1nc(C2=CCC(c3ccc(-c4c[nH]c([C@@H]5CCCN5C(=O)[C@@H](NC(=O)OC)C(C)C)n4)cc3)CC2)c[nH]1)C(C)C` (mixture of isomers) [QC-9, methyl ((1S)-1-(((2S)-2-(4-(4-(4-(2-((2S)-1-((2S)-2-((methoxycarbonyl)amino)-3-methylbutanoyl)-2-pyrrolidinyl)-1H-imidazol-4-yl)phenyl)-1-cyclohexen-1-yl)-1H-imidazol-2-yl)-1-pyrrolidinyl)carbonyl)-2-methylpropyl)carbamate], the EC50 reads like this: under setting [1], 0.011 nM; (read-out: 1b EC50 Range) 2 to 4.57 nM.
Consider `COC(=O)N[C@H](C(=O)N1CCC[C@H]1c1nc(-c2ccc(C3CCC(c4c[nH]c([C@@H]5CCCN5C(=O)[C@@H](NC(=O)OC)C(C)C)n4)CC3)cc2)c[nH]1)C(C)C` (single isomer, unassigned) [QC-16], for which, under “read-out: 1b EC50 Range”, the 50% effective concentration (EC50) fell in the range of 2 to 4.57 nM.
In the case of `COC(=O)N[C@H](C(=O)N1CCC[C@H]1c1nc(-c2ccc(C34CCC(c5c[nH]c([C@@H]6CCCN6C(=O)[C@@H](NC(=O)OC)C(C)C)n5)(CC3)CC4)cc2)c[nH]1)C(C)C` [Example M-1, methyl ((1S)-1-(((2S)-2-(4-(4-(4-(2-((2S)-1-((2S)-2-((methoxycarbonyl)amino)-3-methylbutanoyl)-2-pyrrolidinyl)-1H-imidazol-4-yl)phenyl)bicyclo[2.2.2]oct-1-yl)-1H-imidazol-2-yl)-1-pyrrolidinyl)carbonyl)-2-methylpropyl)carbamate], the EC50 under setting [1] turned out to be 0.009 nM and the concentration for a half-maximal effect (EC50) (read-out: 1b EC50 Range) lay in the range of 2 to 4.57 nM.
For `COC(=O)N[C@@H](C)C(=O)N1CCC[C@H]1c1nc(-c2ccc(C34CCC(c5c[nH]c([C@@H]6CCCN6C(=O)[C@H](C)NC(=O)OC)n5)(CC3)CC4)cc2)c[nH]1` [Example M-2, methyl ((1S)-2-((2S)-2-(4-(4-(4-(2-((2S)-1-(N-(methoxycarbonyl)-L-alanyl)-2-pyrrolidinyl)-1H-imidazol-4-yl)bicyclo[2.2.2]oct-1-yl)phenyl)-1H-imidazol-2-yl)-1-pyrrolidinyl)-1-methyl-2-oxoethyl)carbamate], the half-maximal effective concentration (EC50) (read-out: 1b EC50 Range) lay within 4.57 to 99 nM.
On the same count and under the same terms, then `COC(=O)N[C@@H](C(=O)N1CCC[C@H]1c1nc(-c2ccc(C34CCC(c5c[nH]c([C@@H]6CCCN6C(=O)[C@H](NC(=O)OC)c6ccccc6)n5)(CC3)CC4)cc2)c[nH]1)c1ccccc1` [Example M-3, methyl ((1R)-2-((2S)-2-(4-(4-(4-(2-((2S)-1-((2R)-2-((methoxycarbonyl)amino)-2-phenylacetyl)-2-pyrrolidinyl)-1H-imidazol-4-yl)bicyclo[2.2.2]oct-1-yl)phenyl)-1H-imidazol-2-yl)-1-pyrrolidinyl)-2-oxo-1-phenylethyl)carbamate], with 2 to 4.57 nM; and `COC(=O)N[C@H](C(=O)N1CCC[C@H]1c1nc(-c2ccc(C34CCC(c5coc([C@@H]6CCCN6C(=O)[C@@H](NC(=O)OC)C(C)C)n5)(CC3)CC4)cc2)c[nH]1)C(C)C` [Example M-4, methyl ((1S)-1-(((2S)-2-(4-(4-(4-(2-((2S)-1-((2S)-2-((methoxycarbonyl)amino)-3-methylbutanoyl)-2-pyrrolidinyl)-1H-imidazol-4-yl)phenyl)bicyclo[2.2.2]oct-1-yl)-1,3-oxazol-2-yl)-1-pyrrolidinyl)carbonyl)-2-methylpropyl)carbamate], with 1000 to 10000 nM; and `COC(=O)N[C@H](C(=O)N1[C@@H]2C[C@@H]2C[C@H]1c1ncc(-c2ccc(C34CCC(c5cnc([C@@H]6C[C@H]7C[C@H]7N6C(=O)[C@@H](NC(=O)OC)C(C)C)[nH]5)(CC3)CC4)cc2)[nH]1)C(C)C` [Example M-5, methyl ((1S)-1-(((1R,3S,5R)-3-(5-(4-(4-(2-((1R,3S,5R)-2-((2S)-2-((methoxycarbonyl)amino)-3-methylbutanoyl)-2-azabicyclo[3.1.0]hex-3-yl)-1H-imidazol-5-yl)bicyclo[2.2.2]oct-1-yl)phenyl)-1H-imidazol-2-yl)-2-azabicyclo[3.1.0]hex-2-yl)carbonyl)-2-methylpropyl)carbamate], with 2 to 4.57 nM.
